How the values were obtained:
[1] = tested on: malignant brain tumors; conditions: cited from earlier work
[2] = Compatibility of selenium compounds with alpha-ketoglutaric acid in the preparation; assay type: physicochemical; conditions: for reaction / compatibility with alpha-ketoglutaric acid: on addition to the preparation of EP 326826 B1
Description: Thus initially the research was carried out by the addition of selenium in the form of selenite. […] Attempts were made to suppress this redox reaction by incorporating the selenium in organic compounds. As such a compound, finally seleno-methionine was selected. […] However, with the addition of this compound as a complement to the composition of European Patent 326826 B1 there is a danger that this substance will be incorporated into body proteins, and effect which might reduce the desired effect of the N-acetyl-seleno-L-methionine or cause the effect of that compound to be completely lost.

[3] = tested on: mammary carcinoma; conditions: rats with 1-methyl-1-nitro urea induced mammary cancer; cited from earlier work

| SMILES | general well-being of the patients ([1]; manifested by erythrocyte number, hemoglobin value, thrombocyte count) | patients who felt a reduction in unpleasant side effects ([1]; patients with malignant brain tumors) [%] | reaction / compatibility with alpha-ketoglutaric acid [2] | density of the intra tumoral microvessels in the mammary carcinoma [3] | Maillard reaction with ketoglutaric acid ([2]; especially at the higher temperatures of heat sterilization) |
| --- | --- | --- | --- | --- | --- |
| O=[Se]([O-])[O-].[Na+].[Na+] [selenite, Na-selenite] | improvement in the general well-being | 76 | amorphous selenium precipitated out | significantly reduced | – |
| C[Se]CC[C@H](N)C(=O)O [seleno-methionine] | – | – | does not react with the alphaketoglutaric acid | – | undergoes a Maillard reaction with the ketoglutaric acid |

— US7855191B2, “Agent having a destructive effect on malignant tumors and method for the production thereof” (C.Y.L. Pharmazeutika GmbH, priority 2002, dated 2010)
